Experiments:
[1] = Protection against cerebral ischemia (rats), survival after ligature of the 2 common carotids; assay type: in vivo, rat (male Wistar); conditions: for lowest active dose (protects against lethality induced by simultaneous ligature of the two carotids, from this dose upwards): intraperitoneal; for Number of surviving animals, treated: survivors/treated, 24 hours
Experimental: II. Protection against cerebral ischemia (rats)
a. Principle (C. GIURGEA and F. MOURAVIEFF-LESUISSE; see above under Ia.
Electroencephalographic controls have shown that the ligature of the 2 common carotids in the rat causes a true cerebral ischemia: the electroencephalogram trace flattens and even becomes isoelectric (electric silence).
Male Wistar rats weighing between 250 and 350 g are anesthetized with pentobarbital administered intraperitoneally at a dose of 50 mg/kg (0.5 ml/100 g).
Immediately after the anesthesia, the animals are administered intraperitoneally with an amount of 0.5 ml/100 g, either the compound to be tested dissolved in an isotonic sodium chloride solution (treated animals), or only an isotonic sodium chloride solution or placebo (control animals). About 20 minutes later, the 2 common carotids are exposed and about 10 minutes later ligatured simultaneously. This operation is effected simultaneously on the control animals and the treated animals.
An hour after administration of the compound to be tested or of the placebo, there is again administered intraperitoneally the same dose of either the compound to be tested (to the treated animals) or the placebo (to the control animals).
5 hours after the first administration, there is administered for the third time the same dose of either the compound to be tested (to the surviving treated animals) or the placebo (to the surviving control animals). 24 hours after the first administration the efficacy of the ligature is verified in all animals, under pentobarbital anesthesia, by section of the carotids downstream of the ligature. The number of surviving animals is recorded among both the treated animals and the control animals. For each dose of compound tested, the number of surviving animals among those treated with the compound is compared with the number of surviving animals among the control animals. The difference expresses the protective activity of the compound against the lethality induced by the simultaneous ligature of the 2 carotids. The statistical significance (P) of this difference is evaluated by the Brandt-Snedecor test.

[2] = Toxicity, LD50 after intravenous administration, rat; conditions: in vivo, male rat
Source text: (§1) Table III below gives, for compounds A and B, the LD50, in mg/kg, determined on the male mouse and the male rat after intravenous administration: […]

[3] = tested on: male mouse and male rat; test: Toxicity, conclusion from LD50 in mouse and rat; assay type: in vivo; conditions: for toxicity: intravenous, mouse and rat
Source text: as §1

[4] = Toxicity, LD50 after intravenous administration, mouse; conditions: in vivo, male mouse
Source text: as §1

[5] = Protection against hypoxia (mouse), survival in atmosphere of progressively decreasing oxygen; assay type: in vivo, mouse (male, NMRI strain); conditions: for minimal effective dose: Mus musculus, po, read-out: 1st effective dose (increases survival of animals deprived of oxygen, from this dose upwards); for Number of surviving animals, treated: survivors/treated
Source text: I. Protection against hypoxia (mouse)
a. Principle (C. GIURGEA and F. MOURAVIEFF-LESUISSE; Proc. Xth Intern. Congr. of the Coll. Intern. Neuro-psych.-Pergamon Press, Oxford and New York, 1978, p. 1623-1631).
Due to the particular sensitivity of the nervous system to this type of aggression, the results obtained in this test can be interpreted as a measure of the resistance of the central nervous system. Compounds which increase the resistance of the animals to this stress are suitable for the treatment and prevention of hypoxic type aggressions of the central nervous system.
The apparatus consists of an airtight transparent cage 37 cm high, 39 cm deep and 97 cm wide. This 140 liter cage is provided with 60 transparent compartments each 6×10×10 cm, making it possible to separately accomodate 60 mice.
A fan ensures circulation of the atmosphere between the compartments through a grid floor. The cage is equipped with a device for introducing nitrogen at a constant flow rate, and with an orifice communicating with the ambient atmosphere. Male mice (NMRI strain) weighing 20 to 22 g, are kept fasting as from the day before the test. The experiment is effected on the following day, simultaneously on 3 groups of 20 mice; a control group is given water (25 ml/kg) orally, and the other two groups are each given orally a compound to be tested.
25 minutes after the administration, the animals are distributed at random amongst the compartments so that none of the three groups is concentrated in a preferred area of the cage.
30 minutes after administration, the cage is closed and nitrogen is admitted into it at a constant flow rate (7.75 liters of technical grade nitrogen per minute) for about 37 minutes, at which stage the atmosphere contains 3.7% oxygen.
The cage is left closed until the critical moment where no more than 3 survivors are observed among the 20 control animals. At that moment, the cage is opened and atmospheric air admitted into it. A few moments later the survivors in each group of animals are counted.
For each dose of compound to be tested, the experiments are repeated once or twice, and the results pooled to obtain a minimum of 40 (or 60) animals treated per dose and 40 (or 60) corresponding control animals.
For each dose of compound tested, the number of surviving animals among those treated with the compound is compared with the number of surviving animals among the control animals. The difference between these numbers expresses the protective activity of the compound against hypoxia caused by oxygen deprivation. The statistical significance (P) of this difference is evaluated by the Fischer-Yates test.

[6] = Pharmazie, 37/11, (1982), 753-765; cited from earlier work
[7] = intraperitoneal dose 0.32 mmol/kg

Row | SMILES | lowest active dose (protects against lethality induced by simultaneous ligature of the two carotids, from this dose upwards) [1] [mmol/kg] | Number of surviving animals, treated ([1]; intraperitoneal dose 0.1 mmol/kg) | Number of surviving animals, treated ([1]; intraperitoneal dose 0.16 mmol/kg) | Number of surviving animals, treated [1, 7] | protective activity against ischemia relative to the racemate ([1]; vs racemate (compound A)) [times] | LD50 [2] [mg/kg] | toxic dose compared with active dose ([3]; in vivo) | toxicity [3] | LD50 [4] [mg/kg] | minimal effective dose [5] [µmol/kg] | Number of surviving animals, treated ([5]; oral dose 0.016 mmol/kg) | Number of surviving animals, treated ([5]; oral dose 0.032 mmol/kg) | Number of surviving animals, treated ([5]; oral dose 0.1 mmol/kg) | Number of surviving animals, treated ([5]; oral dose 0.16 mmol/kg) | Number of surviving animals, treated ([5]; oral dose 0.32 mmol/kg) | protective activity against hypoxia relative to the racemate ([5]; vs racemate (compound A)) [times] | Number of surviving animals, treated ([1]; intraperitoneal dose 0.64 mmol/kg) | protective activity against aggressions of the central nervous system caused by hypoxias, cerebral ischemia, etc. [6]
1 | CC[C@@H](C(N)=O)N1CCCC1=O [B, (S)-alpha-ethyl-2-oxo-1-pyrrolidineacetamide] | 0.16 | 14/29 | 14/30 | 19/29 | 4 | 1040 | toxic dose is well above the active dose | very low toxicity | 1080 | 32 | 11/40 | 17/40 | 19/40 | 19/40 | 17/40 | 10 |  | 
2 | CCC(C(N)=O)N1CCCC1=O (racemic) [A, Racemic alpha-ethyl-2-oxo-1-pyrrolidineacetamide, reference compound] | 0.64 |  |  | 8/29 |  | 1500 |  | very low toxicity | 1790 | 320 |  | 16/60 | 7/60 | 12/60 | 30/60 |  | 21/30 | possesses a protective activity

From patent publication US4837223A, “(S)-alpha-ethyl-2-oxo-1-pyrrolidineacetamide compositions” (UCB Societe Anonyme, priority 1984, dated 1989)
